Measured values published in patent US7893041B2, “Oligosaccharide compositions and use thereof in the treatment of infection” (Children's Hospital Medical Center, priority 2003, dated 2011).

Experiments:
[1] = tested on: Campylobacter; assay: Ex vivo inhibition of Campylobacter colonization of human intestinal mucosa; conditions: FIG. 9B
Protocol: FIGS. 9A and 9B are a pair of graphs depicting the results of an study showing inhibition of Campylobacter colonization in BALB/c mice fed with 2 mg of milk fucosylated oligosaccharides given during challenge with 10^4 and 10^8 CFU of bacteria (left). Ex vivo assays of inhibition of human gut colonization of Campylobacter with 2′-fucosyllactose (2′-FL) and milk fucosylated oligosaccharides (OS).

[2] = tested on: Campylobacter jejuni; assay: Cohort of breastfed mother-infant pairs: milk oligosaccharide vs C. jejuni-associated diarrhea; type: in vivo, human; conditions: for Association of rates of C. jejuni diarrhea during breastfeeding with oligosaccharide as a percent of milk oligosaccharide: breastfed infants, 2′-FL P=0.004, LDFH-I P=0.047 (not persisting after controlling for 2′-FL)
Source text: (§1) A cohort of 316 mother-infant pairs was enrolled and monitored from birth to two years postpartum in San Pedro Martir, a transitional neighborhood of Mexico City. Enrollment was restricted to term, normal birthweight infants. This research was approved by institutional review boards in Mexico and Cincinnati. Written informed consent was obtained from mothers who participated. Infant illness and feeding history were collected by trained field workers who made weekly home visits. Milk samples were collected from mothers weekly in the first month, and monthly thereafter. Samples were collected in the morning by an experienced study nurse using an Egnell electric breast pump to obtain the complete content of one breast. Samples were transported on ice from the study household to the laboratory, where they were stored at −70° C. Infant stool samples were collected weekly with additional samples obtained whenever diarrhea occurred. Diarrhea samples were routinely tested for Campylobacter jejuni, diarrheagenic E. coli, Shigella, Salmonella, Aeromonas, and rotavirus, as detailed in previous publications (129, 136-138). […] Diarrhea episodes were defined throughout the study as three or more watery stools within a 24-hour period or loose-to-watery bowel movements that exceeded the child's usual daily stool frequency by two or more stools as determined by a study physician. […] Classification of disease severity was based on the standardized history of each diarrhea episode recorded by a study physician, and was blind to and independent of milk oligosaccharide analysis. Diarrhea was attributed to campylobacter or calicivirus if the pathogen was detected in a stool sample collected during or within seven days of an episode of diarrhea. […]
Milk samples were transported to Boston and analyzed as described previously(143). Milk oligosaccharides were isolated, perbenzoylated, and resolved by reversed-phase HPLC (C-8) with an acetonitrile/water gradient and detected at 229 nm. […]

[3] = tested on: campylobacter adherence to intestinal epithelial cells; conditions: early studies (ref. 80); cited from earlier work
[4] = tested on: V. cholerae; conditions: previous studies (ref. 86); cited from earlier work
[5] = tested on: calicivirus; assay: Cohort of breastfed mother-infant pairs: milk oligosaccharide vs calicivirus-associated diarrhea; type: in vivo, human
Source text: as §1, with “thereafter.” for “thereafter. Samples were collected in the morning by an experienced study nurse using an Egnell electric breast pump to obtain the complete content of one breast. Samples were transported on ice from the study household to the laboratory, where they were stored at −70° C. Infant stool samples were collected weekly with additional samples obtained whenever diarrhea occurred. Diarrhea samples were routinely tested for Campylobacter jejuni, diarrheagenic E. coli, Shigella, Salmonella, Aeromonas, and rotavirus, as detailed in previous publications (129, 136-138).”
Milk samples were transported to Boston and analyzed as described previously(143). […]

[6] = tested on: Campylobacter binding to FUT1-CHO cells; assay: Inhibition of Campylobacter binding to FUT1-transfected CHO cells; type: cell-based, Campylobacter jejuni; conditions: FIG. 7
Source text: α1,2-fucosyltransferase-transfected CHO cells (CHO-FUT1), α1,3/4-fucosyltransferase-transfected CHO cells (CHO-FUT3), and α1,3-fucosyltransferase-transfected CHO cells (CHO-FUT4), and parental CHO cells transfected with the vector pCDM7 lacking the α1,2 FUT gene (CHO-WT) can be used to test bacterial binding and bacterial/host cell agglutination. Parental CHO cells with the vectors are used as controls.
The binding of bacteria to CHO cells transfected with the human gene for α1,2-fucosyltransferase (FUT1), can be assessed by bacterial-cell association assay. […]
Ligands, such as α1,2-fucosyl ligands and homologs are tested for their ability to inhibit binding of campylobacter and V. cholerae strains to CHO-FUT1 cells. For molecules that is bind to H-2 ligands, including anti-H-2 monoclonal antibodies (anti-H-2 MAbs) and the lectins Ulex europaeus (UEA I) and Lotus tetragonolobus (Lotus), inhibition is measured on monolayers of CHO-FUT1 cells incubated in 8-well chamber slides for 1 h with each of the α1,2-fucosyl ligands before adding 100 μL of the bacterial suspension containing 1×10^8 bacteria/mL. […] In both assays, after a 3 h incubation at 37° C., wells are rinsed, lysed with 1% Triton X100, and CFU (colony forming units) of bacteria per well are determined. […]

2-Fucosyllactose [2′-FL]
Inhibition of C. jejuni binding/colonization in human intestinal mucosa ex vivo [1]: inhibits
Association of rates of C. jejuni diarrhea during breastfeeding with oligosaccharide as a percent of milk oligosaccharide [2]: inversely associated
Campylobacter incidence in the intermediate and high groups compared to the low group ([2]; tertiles (n=31) of 2′-FL as percent of milk oligosaccharide: low <0.29, intermediate 0.29-0.36, high >0.37, FIG. 6A): significantly (P<0.01) less

C[C@H](O)[C@@H](O)[C@@H](O)[C@H](O)C=O [L-fucose]
Inhibition of campylobacter adherence to intestinal epithelial cells [3]: inhibition
Inhibition of hemagglutination produced by V. cholerae with human O erythrocytes [4]: inhibited

Lacto-N-difucohexaose I [LDFH-I]
Association of rates of C. jejuni diarrhea during breastfeeding with oligosaccharide as a percent of milk oligosaccharide [2]: directly associated
Association of calicivirus diarrhea during breastfeeding with oligosaccharide as a percent of milk oligosaccharide ([5]; breastfed infants, P=0.012, dose-dependent): inverse association
Calicivirus incidence in the high group compared to the low group ([5]; tertiles (n=31) of LDFH-I as percent of milk oligosaccharide: low <0.07, intermediate 0.07-0.11, high >0.12, FIG. 6B): significantly (P=0.02) less

B1: Ulex europaeus lectin: lectin that binds to H-2 ligands (protein, UniProt P22972 1-243, looked up)
Anti-H(O) lectin 1: SDDLSFKFKNFSQNGKDLSFQGDASVIETGVLQLNKVGNNLPDETGGIARYIAPIHIWNCNTGEVASFITSFSFFMETSANPKAATDGLTFFLAPPDSPLRRAGGYFGLFEDTKDNDSSYQTVAVEFDTIGSPVNFDDPGFPHIGIDVNRVKSINAERWNKRYGLNNVANVEIIYEASSKTLTASLTYPSDQTSISVTSIVDLKEILPEWVSVGFSGGTYIGRQATHEVLNWYFTSNLINTNS
Inhibition of bacterial binding to α1,2-fucosyltransferase (FUT1)-transfected CHO cells [6]: specifically inhibited
